Measurements as given in patent US11896579B2, “Combination drug” (Chugai Seiyaku Kabushiki Kaisha, priority 2015, dated 2024).

What follows are compounds tested on human non-small cell lung cancer cell line NCI-H2228 which is positive for the ALK fusion gene (assay: NCI-H2228 xenograft tumor volume in SCID mice). Conditions: SCID mice with NCI-H2228 transplant; agent alone: bevacizumab 5 mg/kg i.p. once a week; cisplatin 5 mg/kg i.v. once a week; paclitaxel 12.5 mg/kg i.v. once a week; gemcitabine 60 mg/kg i.p. twice a week.
Type: in vivo
Description: In the FIGURE, the horizontal axis represents the number of days elapsed after the transplantation of the cells, and the vertical axis represents the tumor volume and the body weight change rate. Control represents control groups to which a solvent is administered and combo represents combined use groups.
For `Nc1ccn([C@@H]2O[C@H](CO)[C@@H](O)C2(F)F)c(=O)n1` [gemcitabine], the “change in tumor volume during administration alone” value (from here on “change”) was “No significant change in tumor volume”. For `N.N.[Cl][Pt][Cl]` [cisplatin], the “change” value was “No significant change in tumor volume”. For bevacizumab: anti-human VEGF antibody, the “change” value was “increases in tumor volume were observed”. For `CC(=O)O[C@H]1C(=O)[C@@]2(C)[C@H]([C@H](OC(=O)c3ccccc3)[C@]3(O)C[C@H](OC(=O)[C@H](O)[C@@H](NC(=O)c4ccccc4)c4ccccc4)C(C)=C1C3(C)C)[C@]1(OC(C)=O)CO[C@@H]1C[C@@H]2O` [paclitaxel], the “change” value was “No significant change in tumor volume”.
